Our source for the response vs control in vivo values is US4476299A, “Cyclic polyamino containing compounds having therapeutic effect and the preparation thereof” (priority 1981, dated 1984).

In this test the test system is P-388 cells. Kind of test: Antineoplastic action against implanted P-388 tumor, CDF1 mice, i.p.-i.p. (T/C %). It is filed as in vivo. Conditions: Mus musculus, read-out: T/C %, (Treatment/Control %). The protocol:
In this animal test, the antineoplastic action against the implanted tumor was examined, in lower animals in vivo, in repsect to the compounds according to the present invention, by using CDF1 mice.
To the peritoneal cavity of each group of mice consisting of six CDF1 mice per group, 10^6 /0.1 ml of P-388 cells or 10^5 /0.1 ml of L-1210 cells were implanted. […] While to the control groups of CDF1 mice, P-388 and L-1210 cells were implanted in the same manner and they were bred without administration of the compounds. […]

Where [1] appears, read: ip, Table 6, P388, dose 0.05 mg/kg, i.p.
Where [2] appears, read: ip, Table 6, P388, dose 0.5 mg/kg, i.p.
[3] abbreviates: ip, Table 6, P388, dose 2 mg/kg, i.p.

Like-named read-outs stand apart in the source and are kept apart here.

For the compound `CCOc1ccc2cc1Oc1ccc(cc1)CC1C(=O)N(C)C(C2)C(=O)NC(C)C(=O)NC(C)C(=O)N(C)C(Cc2ccc(OC)cc2)C(=O)NC(C)C(=O)N1C` (centres unmarked) [Ex. 3], where the note is “P388, ip”, the response vs control in vivo at 0.05 mg/kg was found to be 137%, the response vs control in vivo at 0.5 mg/kg amounted to 165% and the response vs control in vivo at 2 mg/kg came to 162%.
The corresponding values for `COc1ccc(CC2C(=O)NC(C)C(=O)N(C)C3Cc4ccc(cc4)Oc4cc(ccc4OC(C)C)CC(C(=O)NC(C)C(=O)NC(C)C(=O)N2C)N(C)C3=O)cc1` (centres unmarked) [Ex. 5] are 142%, 175% and 105%.
For `CCCCCOc1ccc2cc1Oc1ccc(cc1)CC1C(=O)N(C)C(C2)C(=O)NC(C)C(=O)NC(C)C(=O)N(C)C(Cc2ccc(OC)cc2)C(=O)NC(C)C(=O)N1C` (centres unmarked) [Ex. 7], under “P388, ip”, the response vs control in vivo at 0.05 mg/kg turned out to be 122%, the response vs control in vivo at 0.5 mg/kg is 143% and the response vs control in vivo at 2 mg/kg stood at 165%.
`CCCCCCCOc1ccc2cc1Oc1ccc(cc1)CC1C(=O)N(C)C(C2)C(=O)NC(C)C(=O)NC(C)C(=O)N(C)C(Cc2ccc(OC)cc2)C(=O)NC(C)C(=O)N1C` (centres unmarked) [Ex. 8]: where the note is “P388, ip”, the response vs control in vivo at 0.05 mg/kg came to 116%, the response vs control in vivo at 0.5 mg/kg was found to be 145%, the response vs control in vivo at 2 mg/kg worked out at 150% and the response vs control in vivo at 4 mg/kg was 164%.
For `CCCCCCCCOc1ccc2cc1Oc1ccc(cc1)CC1C(=O)N(C)C(C2)C(=O)NC(C)C(=O)NC(C)C(=O)N(C)C(Cc2ccc(OC)cc2)C(=O)NC(C)C(=O)N1C` (centres unmarked) [Ex. 9], in that order: 136%, 147%, 163% and 152%.
With `CCCCCCCCCOc1ccc2cc1Oc1ccc(cc1)CC1C(=O)N(C)C(C2)C(=O)NC(C)C(=O)NC(C)C(=O)N(C)C(Cc2ccc(OC)cc2)C(=O)NC(C)C(=O)N1C` (centres unmarked) [Ex. 10], the response vs control in vivo at 0.05 mg/kg under setting [1] was determined as 112%. For the same compound, under setting [2], the response vs control in vivo at 0.5 mg/kg was determined as 142%. In addition, under setting [3], the response vs control in vivo at 2 mg/kg stood at 150%. Besides, the response vs control in vivo at 4 mg/kg (ip, Table 6, P388, dose 4 mg/kg, i.p.) was found to be 155%.
With `COc1ccc(CC2C(=O)NC(C)C(=O)N(C)C3Cc4ccc(cc4)Oc4cc(ccc4OC4CCCCC4)CC(C(=O)NC(C)C(=O)NC(C)C(=O)N2C)N(C)C3=O)cc1` (centres unmarked) [Ex. 16], under “P388, ip”, the response vs control in vivo at 0.05 mg/kg was determined as 126%, the response vs control in vivo at 0.5 mg/kg is 162% and the response vs control in vivo at 2 mg/kg turned out to be 164%.
For `CCOC(=O)CCCOc1ccc2cc1Oc1ccc(cc1)CC1C(=O)N(C)C(C2)C(=O)NC(C)C(=O)NC(C)C(=O)N(C)C(Cc2ccc(OC)cc2)C(=O)NC(C)C(=O)N1C` (centres unmarked) [Ex. 19(2), ethoxycarbonylpropylether (2) of TPC-A], where the note is “P388, ip”, the response vs control in vivo at 0.05 mg/kg came out at 114%, the response vs control in vivo at 0.5 mg/kg came out at 140%, the response vs control in vivo at 2 mg/kg turned out to be 142% and the response vs control in vivo at 4 mg/kg was determined as 153%.
Turning to `COc1ccc(CC2C(=O)NC(C)C(=O)N(C)C3Cc4ccc(cc4)Oc4cc(ccc4OC4CCCCO4)CC(C(=O)NC(C)C(=O)NC(C)C(=O)N2C)N(C)C3=O)cc1` (centres unmarked) [Ex. 20, tetrahydropyranylether of TPC-A], under “P388, ip”, the response vs control in vivo at 0.05 mg/kg was determined as 138%, the response vs control in vivo at 0.5 mg/kg amounted to 164% and the response vs control in vivo at 2 mg/kg is 121%.
Regarding `CCC(=O)Oc1ccc2cc1Oc1ccc(cc1)CC1C(=O)N(C)C(C2)C(=O)NC(C)C(=O)NC(C)C(=O)N(C)C(Cc2ccc(OC)cc2)C(=O)NC(C)C(=O)N1C` (centres unmarked) [Ex. 23], under “P388, ip”, the response vs control in vivo at 0.05 mg/kg was 129%, the response vs control in vivo at 0.5 mg/kg came out at 145%, the response vs control in vivo at 2 mg/kg turned out to be 164% and the response vs control in vivo at 10 mg/kg is 175%.
For `CCCC(=O)Oc1ccc2cc1Oc1ccc(cc1)CC1C(=O)N(C)C(C2)C(=O)NC(C)C(=O)NC(C)C(=O)N(C)C(Cc2ccc(OC)cc2)C(=O)NC(C)C(=O)N1C` (centres unmarked) [Ex. 24], in that order: 125%, 144%, 156% and 170%.
The corresponding values for `COc1ccc(CC2C(=O)NC(C)C(=O)N(C)C3Cc4ccc(cc4)Oc4cc(ccc4OC(=O)C(C)C)CC(C(=O)NC(C)C(=O)NC(C)C(=O)N2C)N(C)C3=O)cc1` (centres unmarked) [Ex. 25] are 124%, 151%, 156% and 184%.
Regarding `CC=CC(=O)Oc1ccc2cc1Oc1ccc(cc1)CC1C(=O)N(C)C(C2)C(=O)NC(C)C(=O)NC(C)C(=O)N(C)C(Cc2ccc(OC)cc2)C(=O)NC(C)C(=O)N1C` (centres unmarked) [Ex. 26], where the note is “P388, ip”, the response vs control in vivo at 0.05 mg/kg was determined as 124%, the response vs control in vivo at 0.5 mg/kg came out at 148%, the response vs control in vivo at 2 mg/kg turned out to be 162% and the response vs control in vivo at 10 mg/kg was 187%.
`CCCCC(=O)Oc1ccc2cc1Oc1ccc(cc1)CC1C(=O)N(C)C(C2)C(=O)NC(C)C(=O)NC(C)C(=O)N(C)C(Cc2ccc(OC)cc2)C(=O)NC(C)C(=O)N1C` (centres unmarked) [Ex. 27]: where the note is “P388, ip”, the response vs control in vivo at 0.05 mg/kg came to 118%, the response vs control in vivo at 0.5 mg/kg is 150%, the response vs control in vivo at 2 mg/kg came out at 158% and the response vs control in vivo at 10 mg/kg came out at 172%.
In the case of `CCCCCCC(=O)Oc1ccc2cc1Oc1ccc(cc1)CC1C(=O)N(C)C(C2)C(=O)NC(C)C(=O)NC(C)C(=O)N(C)C(Cc2ccc(OC)cc2)C(=O)NC(C)C(=O)N1C` (centres unmarked) [Ex. 28], under “P388, ip”, the response vs control in vivo at 0.05 mg/kg was found to be 114%, the response vs control in vivo at 0.5 mg/kg stood at 144% and the response vs control in vivo at 2 mg/kg is 150%.
As for `CCCCCCCC(=O)Oc1ccc2cc1Oc1ccc(cc1)CC1C(=O)N(C)C(C2)C(=O)NC(C)C(=O)NC(C)C(=O)N(C)C(Cc2ccc(OC)cc2)C(=O)NC(C)C(=O)N1C` (centres unmarked) [Ex. 29], where the note is “P388, ip”, the response vs control in vivo at 0.05 mg/kg amounted to 127%, the response vs control in vivo at 0.5 mg/kg is 147%, the response vs control in vivo at 2 mg/kg was found to be 167% and the response vs control in vivo at 10 mg/kg is 169%.
For `COc1ccc(CC2C(=O)NC(C)C(=O)N(C)C3Cc4ccc(cc4)Oc4cc(ccc4OC(=O)c4ccccc4)CC(C(=O)NC(C)C(=O)NC(C)C(=O)N2C)N(C)C3=O)cc1` (centres unmarked) [Ex. 32], in that order: 128%, 186%, 176% and 183%.
In the case of `COc1ccc(CC2C(=O)NC(C)C(=O)N(C)C3Cc4ccc(cc4)Oc4cc(ccc4OC(=O)CCC(C)C)CC(C(=O)NC(C)C(=O)NC(C)C(=O)N2C)N(C)C3=O)cc1` (centres unmarked) [Ex. 40, 4-methyl valerate], for the setting “P388, ip”, the response vs control in vivo at 0.05 mg/kg is 112%, the response vs control in vivo at 0.5 mg/kg came to 134% and the response vs control in vivo at 2 mg/kg was found to be 152%.
Consider `COc1ccc(CC2C(=O)NC(C)C(=O)N(C)C3Cc4ccc(cc4)Oc4cc(ccc4OC(=O)Cc4ccccc4)CC(C(=O)NC(C)C(=O)NC(C)C(=O)N2C)N(C)C3=O)cc1` (centres unmarked) [Ex. 41], for which the response vs control in vivo at 0.05 mg/kg under setting [1] was determined as 118%. The response vs control in vivo at 0.5 mg/kg under setting [2] worked out at 147%. Besides, the response vs control in vivo at 2 mg/kg under setting [3] came to 159%.
For `CCC(C)CC(=O)Oc1ccc2cc1Oc1ccc(cc1)CC1C(=O)N(C)C(C2)C(=O)NC(C)C(=O)NC(C)C(=O)N(C)C(Cc2ccc(OC)cc2)C(=O)NC(C)C(=O)N1C` (centres unmarked) [Ex. 42], where the note is “P388, ip”, the response vs control in vivo at 0.05 mg/kg was 115%, the response vs control in vivo at 0.5 mg/kg amounted to 140% and the response vs control in vivo at 2 mg/kg is 159%.
Turning to `CCCC(C)C(=O)Oc1ccc2cc1Oc1ccc(cc1)CC1C(=O)N(C)C(C2)C(=O)NC(C)C(=O)NC(C)C(=O)N(C)C(Cc2ccc(OC)cc2)C(=O)NC(C)C(=O)N1C` (centres unmarked) [Ex. 43], for the setting “P388, ip”, the response vs control in vivo at 0.05 mg/kg was found to be 117%, the response vs control in vivo at 0.5 mg/kg was found to be 142% and the response vs control in vivo at 2 mg/kg was 154%.
As for `CCCC=CC(=O)Oc1ccc2cc1Oc1ccc(cc1)CC1C(=O)N(C)C(C2)C(=O)NC(C)C(=O)NC(C)C(=O)N(C)C(Cc2ccc(OC)cc2)C(=O)NC(C)C(=O)N1C` (centres unmarked) [Ex. 44], where the note is “P388, ip”, the response vs control in vivo at 0.05 mg/kg came to 117%, the response vs control in vivo at 0.5 mg/kg is 150% and the response vs control in vivo at 2 mg/kg worked out at 165%.
On to `CCC=CCC(=O)Oc1ccc2cc1Oc1ccc(cc1)CC1C(=O)N(C)C(C2)C(=O)NC(C)C(=O)NC(C)C(=O)N(C)C(Cc2ccc(OC)cc2)C(=O)NC(C)C(=O)N1C` (centres unmarked) [Ex. 45], for which the response vs control in vivo at 0.05 mg/kg under setting [1] was 122%. Further, the response vs control in vivo at 0.5 mg/kg under setting [2] turned out to be 145%. The response vs control in vivo at 2 mg/kg under setting [3] was determined as 162%.
